Results taken from patent publication US12076309B2, “Compounds for the treatment of cancers associated with human papillomavirus” (Piramal Enterprises Limited, priority 2011, dated 2024).

How the values were obtained:
[1] = tested on: EGFP linked p53 protein; assay: p53 nuclear translocation assay in HeLa cells; format: cell-based, human; details: 2-50 μg/mL
Procedure: Materials and methods: Two cervical cancer cell lines SiHa and HeLa (ATCC), positive for HPV genome were used. The cell lines were transfected with the expression vector containing p53-EGFP using lipofectamine (Invitrogen, CA, USA). After 48 h of transfection the cells were maintained for 30-45 days in DMEM (Sigma Aldrich, catalogue no. D5546) supplemented with 10% FBS and 800 μg/mL Gen […] (Gibco BRL Life Technologies, Inc) for 30-45 days. The stably expressing cells were used for the p53 Nuclear Translocation Assay. Biological Studies: The stably expressing cells were seeded on 96 well imaging plates (Becton Dickinson, USA) and allowed to grow for 48 h in a humidified CO2 incubator at 37° C. The cell nucleus were stained with vital fluorescent nuclear dye […] (0.5 μg/mL) for 5 minutes followed by fresh medium replacement. A stock solution of 50 mg/mL was prepared in DMSO and further dilutions were made to obtain the concentration of 2-50 μg/mL were made in the culture medium containing 5% FBS. Cells were treated separately with different concentrations (2-50 μg/mL) of Compound A and Compound B. The imaging was carried out at every 12 h using pathway Bio imager (BD, USA) using 20× objective. The cells were segmented based on the nuclear channel and number of cells positive for nuclear-EGFP were calculated to score activity. […]

[2] = tested on: E6; assay: RT-PCR of E6 transcripts in SiHa cells; format: cell-based, Human papillomavirus; details: 50 μg/mL, normalized to β-actin, hydrochloride
Procedure: (§1) Materials and Methods: Two cervical cancer cell lines SiHa and HeLa (ATCC), positive for HPV genome were used for evaluation of Compound A and Compound B. The cell lines were transfected with a plasmid vector expressing p53 protein fused with a fluorescent protein EGFP using lipofectamine (Invitrogen, CA, USA). After 48 h of transfection the cells were maintained for 30-45 days in DMEM (Sigma Aldrich, catalogue no. D5546) supplemented with 10% FBS and 800 μg/mL Geneticin (Gibco BRL Life Technologies, Inc) for 30-45 days. The stably expressing cells were expanded and evaluated for the presence of fusion construct under fluorescent microscopy. After 24 h of transfection, the cells were treated separately with Compound A and Compound B (henceforth referred to as treated cells) for 24 h. Cells were harvested and were used for analysis of status of E6, E7, p53 by western blot and by RT-PCR. Cells not treated with the Compound A and Compound B (henceforth referred to as untreated cells) were used as controls. HPV negative C33A cell was used as negative control. The terms fresh medium and culture medium refer to DMEM (catalogue no. D5546).
The expression status for gene E6 and E7 at the transcription level was detected by Reverse Transcriptase PCR (RT-PCR). The RNA was isolated from the treated and untreated cells using Qiagen AllPrep DNA/RNA Mini Kit (Cat. No. 80204). The RNA integrity was checked by visualization under UV after agarose gel electrophoresis. The quantity and purity of RNA was analysed by Nano Drop (Thermo Scientific). The 500 ng of RNA was converted into cDNA using 0.1 μg/μl of Oligo dT (Promega), MMLV-RT, dNTPs, RNA guard and RT buffer (Promega) and incubated at 37° C. for 1 h. The reaction was terminated by heating the reaction mixture at 90° C. for 3 minutes and used for PCR amplification of E6 and E7 genes. The PCR was conducted as follows:
The sequence of the primers are shown below

[3] = tested on: E6; assay: Western blot of E6 in treated SiHa cells; format: cell-based, Human papillomavirus; details: 50 μg/mL, hydrochloride
Procedure: as §1
(§2) To prepare whole cell extracts for Western blot, the treated cells were lysed in lysis buffer (50 mM Tris-HCl (pH 7.4), 1% NP-40, 40 mM NaF, 10 mM NaCl, 10 mM Na3VO4, 1 mM phenylmethylsulfonyl fluoride, and 10 mM dithiothreitol and 1 μg/ml each of leupeptin and aprotinin). The cell lysates (50 μg) were resolved by SDS-PAGE and the separated proteins (E6, E7 and p53) were transferred to polyvinylidene difluoride membrane (PVDF) by wet transfer method using Bio-Rad electro-transfer apparatus. After blocking with 10% non-fat milk in Tris buffered saline containing 0.2% Tween-20, the membrane was incubated with the primary antibody, followed by HRP-conjugated secondary antibody. Proteins were visualized by 3, 3′-Di amino benzidine (DAB) method. Similar procedure was followed for untreated cells.
(§3) The following antibodies were used for western blot with the indicated dilutions.

[4] = tested on: p53; assay: Western blot of p53 in treated HeLa cells; format: cell-based, human; details: treated 24 h, vs untreated cells, hydrochloride
Procedure: as §1, §2, §3

[5] = tested on: EGFP linked p53 protein; assay: p53 nuclear translocation assay in SiHa cells; format: cell-based, human; details: for time post treatment at which nuclear translocation was initiated: 25 and 50 μg/mL, increased up to 24 h, SiHa and HeLa not distinguished; for nuclear translocation of EGFP-p53 protein: SiHa cells, 2-50 μg/mL
Procedure: Materials and methods: Two cervical cancer cell lines SiHa and HeLa (ATCC), positive for HPV genome were used. The cell lines were transfected with the expression vector containing p53-EGFP using lipofectamine (Invitrogen, CA, USA). After 48 h of transfection the cells were maintained for 30-45 days in DMEM (Sigma Aldrich, catalogue no. D5546) supplemented with 10% FBS and 800 μg/mL Gen […] (Gibco BRL Life Technologies, Inc) for 30-45 days. The stably expressing cells were used for the p53 Nuclear Translocation Assay. Biological Studies: The stably expressing cells were seeded on 96 well imaging plates (Becton Dickinson, USA) and allowed to grow for 48 h in a humidified CO2 incubator at 37° C. The cell nucleus were stained with vital fluorescent nuclear dye […] (0.5 μg/mL) for 5 minutes followed by fresh medium replacement. A stock solution of 50 mg/mL was prepared in DMSO and further dilutions were made to obtain the concentration of 2-50 μg/mL were made in the culture medium containing 5% FBS. Cells were treated separately with different concentrations (2-50 μg/mL) of Compound A and Compound B. The imaging was carried out at every 12 h using pathway Bio imager (BD, USA) using 20× objective. The cells were segmented based on the nuclear channel and number of cells positive for nuclear-EGFP were calculated to score activity. Alternatively the cells were also imaged with Nikon Ti inverted fluorescent microscope equipped with CCD camera Retiga Exi and NIS element software. The bright field images were also collected.

[6] = tested on: E7; assay: Western blot of E7 in treated SiHa cells; format: cell-based, Human papillomavirus; details: SiHa cells (FIG. 1B), 25 μg/mL, compared to control, hydrochloride
Procedure: as §1, §2, §3

[7] = tested on: p53; assay: Western blot of p53 in treated SiHa cells; format: cell-based, human; details: treated 24 h, vs untreated cells, hydrochloride
Procedure: as §1, §2, §3

| SMILES | nuclear translocation of EGFP-p53 protein [1] | transcripts for E6 (RT-PCR) [2] | transcripts for E6 (RT-PCR) ([2]; listed as compound A) | expression of E6 (Western blot) [3] | expression of E6 (Western blot) ([3]; listed as compound A) | expression of p53 protein (Western blot) [4] | expression of p53 protein (Western blot) ([4]; listed as compound A) | time post treatment at which nuclear translocation was initiated [5] [h] | nuclear translocation of EGFP-p53 protein [5] | expression of E7 (Western blot) [6] | expression of E7 (Western blot) ([6]; listed as compound A) | expression of p53 protein (Western blot) [7] | expression of p53 protein (Western blot) ([7]; listed as compound A) | transcripts for E6 (RT-PCR) ([2]; listed as compound B) | expression of E6 (Western blot) ([3]; listed as compound B) | expression of p53 protein (Western blot) ([4]; listed as compound B) | expression of E7 (Western blot) ([6]; listed as compound B) | expression of p53 protein (Western blot) ([7]; listed as compound B) |
| --- | --- | --- | --- | --- | --- | --- | --- | --- | --- | --- | --- | --- | --- | --- | --- | --- | --- | --- |
| CN1CC[C@@H](c2c(O)cc(O)c3c(=O)cc(-c4ccccc4Cl)oc23)[C@@H]1CO.Cl [Compound A, (+)-trans-2-(2-Chlorophenyl)-5,7-dihydroxy-8-(2-hydroxymethyl-1-methyl-pyrrolidin-3-yl)-chromen-4-one hydrochloride] | increased nuclear translocation of EGFP-p53 protein | significant inhibition of transcripts | significant downregulation of expression | down regulated | significant downregulation of expression | increased expression of p53 protein in a dose dependent manner | significant upregulation | 12 | increased nuclear translocation of EGFP-p53 protein | complete down regulation | significant downregulation of expression | increased expression of p53 protein in a dose dependent manner | significant upregulation | – | – | – | – | – |
| CN1CC[C@@H](c2c(O)cc(O)c3c(=O)cc(-c4ccc(C(F)(F)F)cc4Cl)oc23)[C@@H]1CO.Cl [Compound B, (+)-trans-2-(2-chloro-4-trifluoromethyl-phenyl)-5,7-dihydroxy-8-(2-hydroxymethyl-1-methyl-pyrrolidin-3-yl)-chromen-4-one hydrochloride] | increased nuclear translocation of EGFP-p53 protein | significant inhibition of transcripts | – | down regulated | – | increased expression of p53 protein in a dose dependent manner | – | 12 | increased nuclear translocation of EGFP-p53 protein | complete down regulation | – | increased expression of p53 protein in a dose dependent manner | – | significant downregulation of expression | significant downregulation of expression | significant upregulation | significant downregulation of expression | significant upregulation |
